Source: article PMC7377239, “Cardiovascular Effects of Polychlorinated Biphenyls and Their Major Metabolites” (Environmental Health Perspectives, 2020)
Structures can show the parent of a compound that is named as a salt. Where two headings read alike, the source gives them in different places.

Test system: iCell cardiomyocytes (human iPSC-derived cardiomyocytes)
Test: High-content imaging of cytotoxicity and mitochondrial integrity in iPSC-CMs
Format: cell-based
Details: Homo sapiens; for viability at 0.01 µM / activity at 0.01 µM / viability at 0.1 µM / activity at 0.1 µM / viability at 1 µM / activity at 1 µM / viability at 10 µM / activity at 10 µM / viability at 100 µM / activity at 100 µM: 0.00 µM = 100.00; for viability at 0.1 µM / activity at 0.1 µM: 0.10 µM
Description: Details on cardiomyocyte cell culture are described in detail elsewhere ([Grimm et al. 2015b]; [Sirenko et al. 2013a]). Briefly, tissue-culture treated 384 well plates were gelatinized with 25μL per well of 0.1% (w/v) gelatin in water for 2 h at 37°C and 5% CO2 . Individual vials of cells were thawed for 4 min in a water bath maintained at 37°C. Thawed cells were resuspended in 10ml plating medium containing 1:500 (vol/vol) penicillin/streptomycin solution at room temperature (RT). Live cell counts for each cell suspension were determined by trypan blue staining and cells were further diluted to provide final cell densities of 2×10^5 viable cells/ml. Thus, 5,000 cells suspended in 25μL media were transferred per well after the gelatin solution had been discarded. Cell culture plates were rested for 30 min at RT before they were incubated for 48 h at 37°C and 5% CO2 . Then, a media exchange with 30μL of fresh maintenance medium containing 1:500 (vol/vol) penicillin/streptomycin solution was performed, and cell media were subsequently changed every 48 h for 12 d. On the experiment day, the medium was completely exchanged with either 25μL (for Ca^2+ flux assay) or 40μL (for imaging) of fresh medium.
Cytotoxicity and effects on mitochondrial integrity of various PCBs and PCB metabolites in induced pluripotent stem cell-CMs (iPSC-CMs) were assessed using high-content cellular imaging in ImageXpress® Micro Confocal (Molecular Devices) as detailed in ([Grimm et al. 2015b]). Cells in 40μL maintenance media were treated with 10μL of 5× chemical solutions to provide test chemicals at final assay concentrations ranging from 0.01 to 100μM . […] Next, sample wells were treated with 50μL equilibrated 2× concentrated staining solution (maintenance medium containing Hoechst 33342, 4μg/mL and MitoTracker™ Orange, 0.4μM ). Microplates were then incubated for 15 min at 37°C and 5% CO2 before cells were washed twice with 30μL maintenance medium. All media were aspirated and discarded, and cells were fixed with […] of a 3.7% formaldehyde solution for 15 min at 37°C and 5% […] . Fixed cells were washed 3× with 25μL PBS before image acquisition using the DAPI (Hoechst 33342) and Cy3 (MitoTracker™ Orange) filters at 10× magnification on the ImageXpress® Micro Confocal high-content confocal microscope (Molecular Devices). The multiwavelength cell scoring applications module in MetaXpress® was used to analyze acquired images.
Phenotypic responses were quantitatively assessed using concentration–response modeling as detailed elsewhere ([Sirenko et al. 2017]). Briefly, phenotypic readouts were normalized to vehicle controls and fit to a four-parameter logistic model in R studio software (version 3.1.1; R Development Core Team). Following EPA guidance on dose–response modeling, a cutoff of one standard deviation across means of vehicle control (i.e., 0.5% vol/vol DMSO in cell culture media) wells was applied to determine the point-of-departure (POD) values ([U.S. EPA 2012]). In the absence of a concentration–response, the highest tested concentration (i.e., 100μM ) was assigned as “no observable adverse effect level.” The concentration–response assessment R script, as well as templates for vehicle and concentration–response data, are available as a supplement to Sirenko et al. ([2017]). The ability of physicochemical properties to predict differences in PODs were evaluated by multiregression and mixed-effects modeling using R.

[1] = Cardiomyocyte, 1.5 h, read-out: cm.cam.90min
[2] = Cardiomyocyte, 1.5 h, read-out: cm.mii.90min
[3] = Cardiomyocyte, 1.5 h, read-out: cm.mito.90min
[4] = Cardiomyocyte, 1.5 h, read-out: cm.tc.90min
[5] = Cardiomyocyte, 24 h, read-out: cm.cam.24hrs
[6] = Cardiomyocyte, 24 h, read-out: cm.mii.24hrs
[7] = Cardiomyocyte, 24 h, read-out: cm.mito.24hrs
[8] = Cardiomyocyte, 24 h, read-out: cm.tc.24hrs
[9] = Cardiomyocyte, 1.5 h, cardiomyocytes (cm), cam, 90 min, read-out: POD cm.cam.90min
[10] = Cardiomyocyte, 1.5 h, cardiomyocytes (cm), mii, 90 min, read-out: POD cm.mii.90min
[11] = Cardiomyocyte, 1.5 h, cardiomyocytes (cm), mito, 90 min, read-out: POD cm.mito.90min
[12] = Cardiomyocyte, 1.5 h, cardiomyocytes (cm), tc, 90 min, read-out: POD cm.tc.90min
[13] = Cardiomyocyte, 24 h, cardiomyocytes (cm), cam, 24 hrs, read-out: POD cm.cam.24hrs
[14] = Cardiomyocyte, 24 h, cardiomyocytes (cm), mii, 24 hrs, read-out: POD cm.mii.24hrs
[15] = Cardiomyocyte, 24 h, cardiomyocytes (cm), mito, 24 hrs, read-out: POD cm.mito.24hrs
[16] = Cardiomyocyte, 24 h, cardiomyocytes (cm), tc, 24 hrs, read-out: POD cm.tc.24hrs

In the case of `O=S(=O)(O)Oc1ccc(-c2ccc(Cl)cc2)cc1` [4'-yl PCB 3 sulfate], the viability at 0.01 µM [1] is reported as 90.6%, the activity at 0.01 µM [2] is reported as 111% and the activity at 0.01 µM [3] is reported as 90.4%. The viability at 0.01 µM [4] was 90.5%, the viability at 0.1 µM [1] was 97.2% and the activity at 0.1 µM [2] was 109%. The activity at 0.1 µM [3] was 97.2%, the viability at 0.1 µM [4] was 97.5% and the viability at 1 µM [1] was 101%. For the same compound, the activity at 1 µM [2] was 109%, the activity at 1 µM [3] was 101% and the viability at 1 µM [4] was 102%. The viability at 10 µM [1] was 102%, the activity at 10 µM [2] was 107% and the activity at 10 µM [3] was 102%. It also gave a viability at 10 µM [4] of 102%, a viability at 100 µM [1] of 96.5% and an activity at 100 µM [2] of 113%. The activity at 100 µM [3] was 96.7%, the viability at 100 µM [4] was 96.7% and the viability at 0.01 µM [5] was 97.3%. It also gave an activity at 0.01 µM [6] of 98.4%, an activity at 0.01 µM [7] of 95.5% and a viability at 0.01 µM [8] of 97.4%. For the same compound, the viability at 0.1 µM [5] was 105%, the activity at 0.1 µM [6] was 111% and the activity at 0.1 µM [7] was 106%. For the same compound, the viability at 0.1 µM [8] was 106%, the viability at 1 µM [5] was 107% and the activity at 1 µM [6] was 98.9%. It also gave an activity at 1 µM [7] of 108%, a viability at 1 µM [8] of 107% and a viability at 10 µM [5] of 102%. It also gave an activity at 10 µM [6] of 92%, an activity at 10 µM [7] of 101% and a viability at 10 µM [8] of 102%. For the same compound, the viability at 100 µM [5] was 104%, the activity at 100 µM [6] was 82.3% and the activity at 100 µM [7] was 103%. For the same compound, the viability at 100 µM [8] was 105%, the minimal effective concentration (iPSC-CM, 1.5 h, iPSC-CM, read-out: cm.cam.90min POD) was 100 µM and the minimal effective concentration (iPSC-CM, 1.5 h, iPSC-CM, read-out: cm.mii.90min POD) was 100 µM. For the same compound, the minimal effective concentration (iPSC-CM, 1.5 h, iPSC-CM, read-out: cm.mito.90min POD) was 100 µM, the minimal effective concentration (iPSC-CM, 1.5 h, iPSC-CM, read-out: cm.tc.90min POD) was 100 µM and the minimal effective concentration (iPSC-CM, 24 h, iPSC-CM, read-out: cm.cam.24hrs POD) was 100 µM. For the same compound, the minimal effective concentration (iPSC-CM, 24 h, iPSC-CM, read-out: cm.mii.24hrs POD) was 53.5 µM, the minimal effective concentration (iPSC-CM, 24 h, iPSC-CM, read-out: cm.mito.24hrs POD) was 100 µM and the minimal effective concentration (iPSC-CM, 24 h, iPSC-CM, read-out: cm.tc.24hrs POD) was 100 µM.

`Oc1cccc(-c2ccc(Cl)cc2)c1` [3'-OH-PCB 3] showed a minimal effective concentration [9] of 16 µM, a minimal effective concentration [10] of 35 µM and a minimal effective concentration [11] of 15 µM. For the same compound, the minimal effective concentration [12] was 14.8 µM, the minimal effective concentration [13] was 14.1 µM and the minimal effective concentration [14] was 23 µM. For the same compound, the minimal effective concentration [15] was 14 µM and the minimal effective concentration [16] was 15.6 µM.

`Clc1cc(Cl)c(-c2cc(Cl)c(Cl)cc2Cl)cc1Cl` [PCB 153, 2,2′,4,4′,5,5′-hexachlorobiphenyl] showed a minimal effective concentration [9] of 20.6 µM, a minimal effective concentration [10] of 100 µM and a minimal effective concentration [11] of 19.8 µM. The minimal effective concentration [12] was 23.2 µM, the minimal effective concentration [13] was 11.6 µM and the minimal effective concentration [14] was 39.9 µM. The minimal effective concentration [15] was 10.5 µM and the minimal effective concentration [16] was 11.1 µM.
